# Data published in patent US20250170090A1, “METHOD FOR PREVENTING OR TREATING DISEASE OR DISORDER ASSOCIATED WITH ANTINEOPLASTIC AGENT” (ONQUALITY PHARMACEUTICALS CHINA LTD., priority 2022, published 2025).
# Tests used:
# [1] = tested on: human immortalized keratinocytes (HaCaT); assay: CCK-8 cell viability: alleviation of proliferative toxicity of anti-tumor agents on HaCaT (Table 8-1); type: cell-based; conditions: NO-NSAID 100 μM, percentage increase in viable cells vs anti-tumor agent alone
# Method: (§1) Experiments were conducted using various epithelial cells: Examples 47-51 used human immortalized keratinocytes (HaCaT) with corresponding results in Table 8-1; Examples 52-56 used human oral keratinocytes (HOK) with results in Table 8-2; Examples 57-61 used gastric epithelial cells (GES-1) with results in Table 8-3; Examples 62-66 used human intestinal epithelial cells (FHs 74 Int) with results in Table 8-4.
# (§2) The cultured cells were digested the suspended, counted, and seed into a 96-well plate with 5,000-10,000 cells per well. The wells are divided into the following groups: blank control group, anti-tumor agent group, anti-tumor agent+NO-NSAID group, anti-tumor agent solvent group, NO-NSAID solvent control group. Wherein each well of each group contained a basic medium, and the final liquid volume contained in each well was about 100 μL. The grouping situation was as follows: • 1) Blank control group: no solution was added except normally replacing the medium; • 2) Anti-tumor agent group: added the anti-tumor agent solution (the final concentration was shown in Table 8-1 to Table 8-4, the solvent of the anti-tumor agent solution was DMSO); • 3) Anti-tumor agent+NO-NSAID group: added the anti-tumor agent solution and the NO-NSAID solution (the final concentrations of anti-tumor agent and NO-NSAID were shown in Table 8-1 to Table 8-4, and according to the solubility of NO-NSAID, the solvent of NO-NSAID solution was selected as ethanol or sterile water, and minor volume differences in each group were adjusted by added the corresponding solvent); • 4) Anti-tumor agent solvent group: an equal volume of DMSO as contained in the corresponding anti-tumor agent solution in Group 2) was added; • 5) NO-NSAID control group: the same volume and type of solvent (for example, ethanol or sterile water) corresponding to the NO-NSAID contained in group 3) was added.
# (§3) The anti-tumor agent solvent group was not involved in data processing and was only used as a reference for evaluating experimental system error. The NO-NSAID solvent control group was used for data correction to eliminate the influence of the solvent on the results.
# (§4) After culturing for 24-48 hours, the Cell Counting Kit-8 (CCK-8) detection kit (C0037, Shanghai Beyotime Biotechnology Co., Ltd., Beyotime Biotechnology) was used to determine the cell viability. This allows for the calculation of the proliferative toxicity of anti-tumor agent on cell and the mitigating effect of NO-NSAID on proliferative toxicity. The results were statistically analyzed and plotted using GraphPad Prism 6.0 software and t test.
# [2] = tested on: chemotherapy-induced hand-foot syndrome; assay: Prevention of chemotherapy-induced hand-foot syndrome in rat models (Table 5); type: in vivo, SD rats
# Method: Rat animal model was constructed. After several days, the rats develop hand-foot syndrome in their paws. After one week of acclimatization (about 200 g), the SD rats are divided into groups of 10 rats each, followed by gavage administration experiment. The chemotherapy drugs were dissolved, and each rat was given a gavage dose of 1 mL/100 g. After gavage, the rats were fixed with a fixed cylinder. NO-NSAID ointment was applied to the paws of the rats in the medication group, and blank ointment was applied to the paws of the rats in the blank group (as blank control). […] Table 5 lists the animal experimental combinations of chemotherapy drugs and NO-NSAID ointment, as well as the corresponding experimental results (where the value in the control rate column=the incidence rate of hand-foot syndrome in the blank group−the incidence rate of hand-foot syndrome in the treatment group).
# [3] = tested on: hand-foot syndrome caused by anti-tumor agents; assay: Treatment of established hand-foot syndrome caused by anti-tumor agents in rats (Table 4); type: in vivo
# Method: After the rats (about 200 g) were fed and adapted for one week, the rats were divided into groups of 10 rats for gavage administration experiment. The anti-tumor agent was dissolved in a mixed solution of Cremophor EL:ethanol=1:1, and diluted with PBS to the required concentration (diluted about 3 times with PBS solution) before gavage. […] Specific experimental procedures followed those outlined in the prevention experiment. […] Table 4 lists the animal experiments using various anti-tumor agents and NO-NSAID ointment, as well as the corresponding experimental results (where the value in the control rate column=the incidence rate of hand-foot syndrome in the blank group−the incidence rate of hand-foot syndrome in the treatment group).
# [4] = tested on: human oral keratinocytes (HOK); assay: CCK-8 cell viability: alleviation of proliferative toxicity of anti-tumor agents on HOK (Table 8-2); type: cell-based; conditions: NO-NSAID 100 μM
# Method: as §1, §2, §3, §4
# [5] = tested on: human intestinal epithelial cells (FHs 74 Int); assay: CCK-8 cell viability: alleviation of proliferative toxicity of anti-tumor agents on FHs 74 Int (Table 8-4); type: cell-based; conditions: NO-NSAID 100 μM
# Method: as §1, §2, §3, §4
# [6] = tested on: gastric epithelial cells (GES-1); assay: CCK-8 cell viability: alleviation of proliferative toxicity of anti-tumor agents on GES-1 (Table 8-3); type: cell-based, human; conditions: NO-NSAID 100 μM
# Method: as §1, §2, §3, §4
compound,measurement,setting,value
CC(C(=O)OCCCO[N+](=O)[O-])c1ccc(-c2ccccc2)c(F)c1 (stereo not drawn) [Compound A1],Response rate % (average),[1]; Afatinib (10 μM),38%
same,Response rate % (average),[1]; Cabozantinib (5 μM),36%
same,Response rate % (average),[1]; Dabrafenib (10 μM),2%
same,Response rate % (average),[1]; Everolimus (5 μM),−3%
same,Response rate % (average),[1]; Infigratinib (15 μM),−6%
same,Response rate % (average),[1]; Lapatinib (5 μM),33%
same,Response rate % (average),[1]; Lenvatinib (10 μM),24%
same,Response rate % (average),[1]; Olmutinib (10 μM),42%
same,Response rate % (average),[1]; Regorafenib (5 μM),41%
same,Response rate % (average),[1]; Selumetinib (5 μM),19%
same,Response rate % (average),[1]; Sorafenib (5 μM),25%
same,Response rate % (average),[1]; Sunitinib (5 μM),15%
same,Control rate,"[2]; Capecitabine 4000 mg/kg once a day, ointment 1% wt, Days 40",37.50%
same,Control rate,"[2]; Capecitabine 4000 mg/kg once a day, ointment 3% wt, Days 40",44.44%
same,Control rate,"[2]; Doxorubicin 7 mg/kg once every three days, ointment 1% wt, Days 30",50.00%
same,Response rate,"[3]; Apatinib 105 mg/kg once every two days, ointment 2.50% wt, Days 7",28.57%
same,Response rate,"[3]; Cabozantinib 50 mg/kg once every two days, ointment 1% wt, Days 11",28.57%
same,Response rate,"[3]; Encorafenib 80 mg/kg once every two days, ointment 2.50% wt, Days 9",14.29%
same,Response rate,"[3]; Fruquintinib 40 mg/kg once every two days, ointment 2.50% wt, Days 8",42.86%
same,Response rate,"[3]; Lenvatinib 65 mg/kg once a day, ointment 2.50% wt, Days 9",40.00%
same,Response rate,"[3]; Olmutinib 100 mg/kg once every two days, ointment 2.50% wt, Days 12",42.86%
same,Response rate,"[3]; Regorafenib 90 mg/kg once every two days, ointment 0.50% wt, Days 8",14.29%
same,Response rate,"[3]; Sorafenib 80 mg/kg once every two days, ointment 2.50% wt, Days 5",28.57%
same,Response rate,"[3]; Sunitinib 120 mg/kg once every two days, ointment 2.50% wt, Days 9",28.57%
same,Response rate % (average),[4]; Afatinib (10 μM),41%
same,Response rate % (average),[4]; Cabozantinib (5 μM),23%
same,Response rate % (average),[4]; Dabrafenib (10 μM),2%
same,Response rate % (average),[4]; Everolimus (5 μM),−2%
same,Response rate % (average),[4]; Infigratinib (15 μM),1%
same,Response rate % (average),[4]; Lapatinib (5 μM),12%
same,Response rate % (average),[4]; Lenvatinib (10 μM),38%
same,Response rate % (average),[4]; Olmutinib (10 μM),40%
same,Response rate % (average),[4]; Regorafenib (5 μM),22%
same,Response rate % (average),[4]; Selumetinib (5 μM),15%
same,Response rate % (average),[4]; Sorafenib (5 μM),22%
same,Response rate % (average),[4]; Sunitinib (5 μM),9%
same,Response rate % (average),[5]; Afatinib (10 μM),39%
same,Response rate % (average),[5]; Cabozantinib (5 μM),27%
same,Response rate % (average),[5]; Dabrafenib (10 μM),−9%
same,Response rate % (average),[5]; Everolimus (5 μM),19%
same,Response rate % (average),[5]; Infigratinib (15 μM),0%
same,Response rate % (average),[5]; Lapatinib (5 μM),35%
same,Response rate % (average),[5]; Lenvatinib (10 μM),43%
same,Response rate % (average),[5]; Olmutinib (10 μM),34%
same,Response rate % (average),[5]; Regorafenib (5 μM),37%
same,Response rate % (average),[5]; Selumetinib (5 μM),29%
same,Response rate % (average),[5]; Sorafenib (5 μM),17%
same,Response rate % (average),[5]; Sunitinib (5 μM),21%
same,Response rate % (average),[6]; Afatinib (10 μM),24%
same,Response rate % (average),[6]; Cabozantinib (5 μM),28%
same,Response rate % (average),[6]; Dabrafenib (10 μM),6%
same,Response rate % (average),[6]; Everolimus (5 μM),24%
same,Response rate % (average),[6]; Infigratinib (15 μM),23%
same,Response rate % (average),[6]; Lapatinib (5 μM),31%
same,Response rate % (average),[6]; Lenvatinib (10 μM),41%
same,Response rate % (average),[6]; Olmutinib (10 μM),38%
same,Response rate % (average),[6]; Regorafenib (5 μM),34%
same,Response rate % (average),[6]; Selumetinib (5 μM),18%
same,Response rate % (average),[6]; Sorafenib (5 μM),15%
same,Response rate % (average),[6]; Sunitinib (5 μM),−2%
